From patent US4296105A, “Derivatives of doxorubicine, their preparation and use” (Institut International de Pathologie Cellulaire et …, priority 1978, dated 1981)

How the values were obtained:
leukemia L1210 = assay: Antitumoral activity in DBA2 mice grafted subcutaneously with leukemia L1210 cells; assay type: in vivo
Protocol: The tests were made with mice weighing 20 to 22 g grafted subcutaneously with 10^6 cells of leukemia L1210 and treated with daily doses between 5 and 60 mg/kg i.v.
At equitoxic dose, doxorubicine induces 78% ILS, 16% of surviving animals at long term and an average tumoral volume of 24 mm^3 on day 12.

[1] = Acute toxicity in mice (50% lethal dose, i.v. injection 2 consecutive days); assay type: in vivo
[2] = DBA2 mice 20-22 g, 10^6 L1210 cells s.c., i.v. days 1 and 2, 48 mg/kg a day
[3] = DBA2 mice, L1210 s.c., equitoxic dose

SMILES	increase in life span (ILS) (leukemia L1210; [2]) [%]	surviving animals at long term (leukemia L1210; [2]) [%]	average tumoral volume on day 12 (leukemia L1210; [2]) [mm^3]	LD50 ([1]; mouse, in vivo, iv) [mg/kg]	LD50 relative to doxorubicine (times more than for doxorubicine) ([1]; versus doxorubicine) [times]	increase in life span (ILS) (leukemia L1210; [3]) [%]	surviving animals at long term (leukemia L1210; [3]) [%]	average tumoral volume on day 12 (leukemia L1210; [3]) [mm^3]
COc1cccc2c1C(=O)c1c(O)c3c(c(O)c1C2=O)C[C@@](O)(C(=O)CO)C[C@@H]3O[C@H]1C[C@H](NC(=O)[C@@H](N)CC(C)C)[C@H](O)[C@H](C)O1 [N-(L-leucyl)doxorubicine]	131	33	0.01	~67	6	–	–	–
COc1cccc2c1C(=O)c1c(O)c3c(c(O)c1C2=O)C[C@@](O)(C(=O)CO)C[C@@H]3O[C@H]1C[C@H](N)[C@H](O)[C@H](C)O1 [doxorubicine]	–	–	–	–	–	78	16	24
